Test results reported in the NIST ThermoML archive (doi:10.1016/j.jct.2005.01.017).
“And” between values parts separate entries of the source, which are not always exact repeats. Equal values may be shown once. Numbers after ± are expanded uncertainties.

Key:
[1] = 101 kPa, Liquid
[2] = xn = mol fraction of the nth substance listed; details: 101 kPa, Liquid, x1 = 1

Row | SMILES | mass density ([1]; 293.15 K) [kg/m3] | mass density ([1]; 303.15 K) | mass density ([1]; 313.15 K) [kg/m3] | mass density ([1]; 323.15 K) [kg/m3] | mass density ([1]; 333.15 K) [kg/m3] | mass density ([1]; 343.15 K) [kg/m3] | mass density ([2]; 293.15 K) [kg/m3] | mass density ([2]; 303.15 K) [kg/m3] | mass density ([2]; 313.15 K) [kg/m3] | mass density ([2]; 323.15 K) [kg/m3] | mass density ([2]; 333.15 K) [kg/m3] | mass density ([2]; 343.15 K) [kg/m3] | mass density ([1]; 353.15 K) [kg/m3] | mass density ([2]; 353.15 K) [kg/m3]
1 | Cc1ccccc1C [1,2-dimethylbenzene] | 878.6 ± 40 | 872.25 ± 40 kg/m3 | 859.67 ± 40 | 840.84 ± 40 | 815.74 ± 40 | 784.38 ± 40 |  |  |  |  |  |  |  | 
2 | Cc1ccccc1C [1,2-dimethylbenzene] + CC1COC(=O)O1 |  |  |  |  |  |  | 878.6 ± 40 | 872.25 ± 40 | 859.67 ± 40 | 840.84 ± 40 | 815.74 ± 40 | 784.38 ± 40 |  | 
3 | Cc1cccc(C)c1 [1,3-dimethylbenzene] | 864.2 ± 1.9 | 855.76 ± 2 kg/m3 | 847.11 ± 2.1 | 838.27 ± 2.1 | 829.22 ± 2.2 | 819.97 ± 2.3 |  |  |  |  |  |  | 810.51 ± 2.3 | 
4 | Cc1cccc(C)c1 [1,3-dimethylbenzene] + CC1COC(=O)O1 |  |  |  |  |  |  | 864.2 ± 40 | 855.76 ± 40 | 847.11 ± 40 | 838.27 ± 40 | 829.22 ± 40 | 819.97 ± 40 |  | 810.51 ± 40
5 | Cc1ccc(C)cc1 [1,4-dimethylbenzene] | 861 ± 1.8 | 852.28 ± 1.9 kg/m3 | 843.58 ± 1.9 | 834.92 ± 2 | 826.27 ± 2.1 | 817.66 ± 2.2 |  |  |  |  |  |  | 809.07 ± 2.2 | 
6 | Cc1ccc(C)cc1 [1,4-dimethylbenzene] + CC1COC(=O)O1 |  |  |  |  |  |  | 861 ± 40 | 852.28 ± 40 | 843.58 ± 40 | 834.92 ± 40 | 826.27 ± 40 | 817.66 ± 40 |  | 809.07 ± 40
7 | CC1COC(=O)O1 (configuration not stated) [4-methyl-1,3-dioxolan-2-one] | 1200.25 ± 40 | 1180.55 ± 40 kg/m3 and 1180.56 ± 40 kg/m3 | 1161.28 ± 40 | 1142.43 ± 40 | 1123.99 ± 40 | 1105.98 ± 40 |  |  |  |  |  |  | 1088.38 ± 40 | 
